Laboratory results: patent publication US12146004B2, “Polymyxin compounds and uses thereof” (priority 2014, dated 2024)
≈ marks a conversion by molar mass, not a printed value. Bridge positions count the residues as written; N and C are the ends. Square brackets hold non-standard residues; d marks the D form. Peptide text beside a SMILES is read from it. * marks the point of attachment. X29 = Cc1ccc(CO[C@@H](CN)C(=O)*)cc1; X9 = Cc1ccc(CO[C@@H](CCN)C(=O)*)cc1; X27 = NCCC(C(=O)*)c1cccc(Cl)c1; dCha = N[C@H](CC1CCCCC1)C(=O)O; X28 = NCCC(C(=O)*)c1ccccc1Cl; X4 = CC(C)CC1CNCC(C(=O)*)C1; X15 = NCCC(CC1CCCC1)C(=O)*; X24 = NCCC(Cc1ccsc1)C(=O)*; Dab = NCC[C@H](N)C(=O)O; Dap = NC[C@H](N)C(=O)O

Assays:
Assay type in all cases: cell-based
[1] = test system: Acinetobacter baumannii
How it was run: (§1)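 Susceptibility testing covered up to nine strains of each Gram-negative pathogen, among them resistant strains and strains with elevated MICs to Polymyxin. Values are MICs in μg/mL.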

[2] = test system: Pseudomonas aeruginosa
How it was run: as §1

[3] = test system: Escherichia coli
How it was run: as §1

[4] = test system: Klebsiella pneumoniae
How it was run: as §1

Row | MIC A. baumanii 053 [1] [µg/mL] | MIC A. baumanii 056 [1] [µg/mL] | MIC A. baumanii ATCC BAA-747 [1] [µg/mL] | MIC A. baumanii NCTC 13424 [1] [µg/mL] | MIC P. aeruginosa 068 [2] [µg/mL] | MIC P. aeruginosa 070 [2] [µg/mL] | MIC P. aeruginosa ATCC 27853 [2] [µg/mL] | MIC P. aeruginosa CCUG 59347 [2] [µg/mL] | MIC E. coli 058 [3] [µg/mL] | MIC E. coli 061 [3] [µg/mL] | MIC E. coli ATCC 25922 [3] [µg/mL] | MIC K. pneumoniae 063 [4] [µg/mL] | MIC K. pneumoniae 065 [4] [µg/mL] | MIC K. pneumoniae ATCC 13882 [4] [µg/mL] | MIC E. coli NCTC 9001 [3] [µg/mL] | MIC K. pneumoniae ATCC 4352 [4] [µg/mL] | SMILES
1 |  |  | 0.5 (≈ 0.434 µM) | 0.5 (≈ 0.434 µM) |  |  | 0.5 (≈ 0.434 µM) | 0.5 (≈ 0.434 µM) | 8 (≈ 6.95 µM) |  | 0.125 (≈ 0.109 µM) |  |  | 0.25 (≈ 0.217 µM) |  |  | CC(C)C[C@@H]1NC(=O)[C@@H](CC2CCCCC2)NC(=O)[C@H](CCN)NC(=O)[C@@H](NC(=O)[C@H](CN)NC(=O)[C@@H](NC(=O)C(CCN)c2ccccc2Cl)[C@@H](C)O)CCNC(=O)[C@H]([C@@H](C)O)NC(=O)[C@H](CCN)NC(=O)[C@H](CCN)NC1=O (stereo partly drawn) [Example 76, 4-amino-2-(2-chlorophenyl) butanoyl L-Thr-L-Dap-polymyxin [D-cyclohexylalanine]-6 heptapeptide.] (X28-T[Dap][Dab][Dab][dCha]L[Dab][Dab]T; lactam 3-C)
2 |  |  | 1 (≈ 0.858 µM) | 0.5 (≈ 0.429 µM) |  |  | 0.5 (≈ 0.429 µM) | 0.5 (≈ 0.429 µM) | 8 (≈ 6.87 µM) |  | 0.25 (≈ 0.215 µM) |  | 8 (≈ 6.87 µM) | 0.5 (≈ 0.429 µM) |  |  | CC(C)C[C@@H]1NC(=O)[C@@H](CC2CCCCC2)NC(=O)[C@H](CCN)NC(=O)[C@@H](NC(=O)[C@H](CCN)NC(=O)[C@@H](NC(=O)C(CCN)c2ccccc2Cl)[C@@H](C)O)CCNC(=O)[C@H]([C@@H](C)O)NC(=O)[C@H](CCN)NC(=O)[C@H](CCN)NC1=O (stereo partly drawn) [Example 77, 4-amino-2-(2-chlorophenyl) butanoyl polymyxin [D-cyclohexylalanine]-6 nonapeptide] (X28-T[Dab][Dab][Dab][dCha]L[Dab][Dab]T; lactam 3-C)
3 |  |  | 0.25 (≈ 0.218 µM) | 0.06 (≈ 0.0523 µM) |  |  | 0.25 (≈ 0.218 µM) | 0.25 (≈ 0.218 µM) | 4 (≈ 3.49 µM) |  | 0.25 (≈ 0.218 µM) |  |  | 0.25 (≈ 0.218 µM) |  |  | Cc1ccc(CO[C@@H](CN)C(=O)N[C@H](C(=O)N[C@@H](CN)C(=O)N[C@H]2CCNC(=O)[C@H]([C@@H](C)O)NC(=O)[C@H](CCN)NC(=O)[C@H](CCN)NC(=O)[C@H](CC(C)C)NC(=O)[C@@H](CC3CCCCC3)NC(=O)[C@H](CCN)NC2=O)[C@@H](C)O)cc1 [Example 78, (S)-3-amino-2-((4-methylbenzyl)oxy) propanoyl L-Thr-L-Dap-polymyxin [D-cyclohexylalanine]-6 heptapeptide] (X29-T[Dap][Dab][Dab][dCha]L[Dab][Dab]T; lactam 3-C)
4 |  |  | 0.25 (≈ 0.217 µM) | 0.25 (≈ 0.217 µM) |  |  | 0.5 (≈ 0.434 µM) | 0.5 (≈ 0.434 µM) | 2 (≈ 1.74 µM) |  | 0.5 (≈ 0.434 µM) |  | 2 (≈ 1.74 µM) | 0.5 (≈ 0.434 µM) |  |  | CC(C)C[C@@H]1NC(=O)[C@@H](CC2CCCCC2)NC(=O)[C@H](CCN)NC(=O)[C@@H](NC(=O)[C@H](CN)NC(=O)[C@@H](NC(=O)C(CCN)c2cccc(Cl)c2)[C@@H](C)O)CCNC(=O)[C@H]([C@@H](C)O)NC(=O)[C@H](CCN)NC(=O)[C@H](CCN)NC1=O (stereo partly drawn) [Example 79, 4-Amino-2-(3-chlorophenyl) butanoyl L-Thr-L-Dap-polymyxin [D-cyclohexylalanine]-6 heptapeptide.] (X27-T[Dap][Dab][Dab][dCha]L[Dab][Dab]T; lactam 3-C)

Continued, molecule first:

Row | SMILES | MIC A. baumanii 053 [1] [µg/mL] | MIC A. baumanii 056 [1] [µg/mL] | MIC A. baumanii ATCC BAA-747 [1] [µg/mL] | MIC A. baumanii NCTC 13424 [1] [µg/mL] | MIC P. aeruginosa 068 [2] [µg/mL] | MIC P. aeruginosa 070 [2] [µg/mL] | MIC P. aeruginosa ATCC 27853 [2] [µg/mL] | MIC P. aeruginosa CCUG 59347 [2] [µg/mL] | MIC E. coli 058 [3] [µg/mL] | MIC E. coli 061 [3] [µg/mL] | MIC E. coli ATCC 25922 [3] [µg/mL] | MIC K. pneumoniae 063 [4] [µg/mL] | MIC K. pneumoniae 065 [4] [µg/mL] | MIC K. pneumoniae ATCC 13882 [4] [µg/mL] | MIC E. coli NCTC 9001 [3] [µg/mL] | MIC K. pneumoniae ATCC 4352 [4] [µg/mL]
5 | CC(C)C[C@@H]1NC(=O)[C@@H](CC2CCCCC2)NC(=O)[C@H](CCN)NC(=O)[C@@H](NC(=O)[C@H](CN)NC(=O)[C@@H](NC(=O)C(CCN)Cc2ccsc2)[C@@H](C)O)CCNC(=O)[C@H]([C@@H](C)O)NC(=O)[C@H](CCN)NC(=O)[C@H](CCN)NC1=O (stereo partly drawn) [Example 68, 4-amino-2-(thiophen-3-ylmethyl)butanoyl L-Thr-L-Dap-polymyxin [D-cyclohexylalanine]-6 heptapeptide.] (X24-T[Dap][Dab][Dab][dCha]L[Dab][Dab]T; lactam 3-C) | >64 | 64 (≈ 56.3 µM) | 0.25 (≈ 0.22 µM) | 0.25 (≈ 0.22 µM) | 1 (≈ 0.88 µM) | 1 (≈ 0.88 µM) | 0.25 (≈ 0.22 µM) | 0.5 (≈ 0.44 µM) | 2 (≈ 1.76 µM) | 16 (≈ 14.1 µM) | 0.125 (≈ 0.11 µM) | 16 (≈ 14.1 µM) | 1 (≈ 0.88 µM) | 0.25 (≈ 0.22 µM) |  | 
6 | Cc1ccc(CO[C@@H](CCN)C(=O)N[C@H](C(=O)N[C@@H](CN)C(=O)N[C@H]2CCNC(=O)[C@H]([C@@H](C)O)NC(=O)[C@H](CCN)NC(=O)[C@H](CCN)NC(=O)[C@H](CC(C)C)NC(=O)[C@@H](CC3CCCCC3)NC(=O)[C@H](CCN)NC2=O)[C@@H](C)O)cc1 [Example 71, (S)-4-amino-2-((4-methylbenzyl)oxy) butanoyl L-Thr-L-Dap-polymyxin [D-cyclohexylalanine]-6 heptapeptide.] (X9-T[Dap][Dab][Dab][dCha]L[Dab][Dab]T; lactam 3-C) | 64 (≈ 55.2 µM) | 32 (≈ 27.6 µM) | 0.125 (≈ 0.108 µM) | 0.125 (≈ 0.108 µM) | 8 (≈ 6.89 µM) | 16 (≈ 13.8 µM) | 0.25 (≈ 0.215 µM) | 0.25 (≈ 0.215 µM) | 4 (≈ 3.45 µM) | 16 (≈ 13.8 µM) | 0.125 (≈ 0.108 µM) | 64 (≈ 55.2 µM) | 4 (≈ 3.45 µM) | 0.25 (≈ 0.215 µM) | 0.125 (≈ 0.108 µM) | 0.25 (≈ 0.215 µM)
7 | CC(C)CC1CNCC(C(=O)N[C@H](C(=O)N[C@@H](CCN)C(=O)N[C@H]2CCNC(=O)[C@H]([C@@H](C)O)NC(=O)[C@H](CCN)NC(=O)[C@H](CCN)NC(=O)[C@H](CC(C)C)NC(=O)[C@@H](CC3CCCCC3)NC(=O)[C@H](CCN)NC2=O)[C@@H](C)O)C1 (some centres unmarked) [Example 73] (X4-T[Dab][Dab][Dab][dCha]L[Dab][Dab]T; lactam 3-C) | 64 (≈ 56.3 µM) | 16 (≈ 14.1 µM) | 0.25 (≈ 0.22 µM) | 0.125 (≈ 0.11 µM) | 1 (≈ 0.88 µM) | 1 (≈ 0.88 µM) | 0.5 (≈ 0.44 µM) | 0.5 (≈ 0.44 µM) | 1 (≈ 0.88 µM) | 2 (≈ 1.76 µM) | 0.125 (≈ 0.11 µM) | 8 (≈ 7.04 µM) | 2 (≈ 1.76 µM) | 0.25 (≈ 0.22 µM) | 0.125 (≈ 0.11 µM) | 
8 | CC(C)C[C@@H]1NC(=O)[C@@H](CC2CCCCC2)NC(=O)[C@H](CCN)NC(=O)[C@@H](NC(=O)[C@H](CN)NC(=O)[C@@H](NC(=O)C(CCN)CC2CCCC2)[C@@H](C)O)CCNC(=O)[C@H]([C@@H](C)O)NC(=O)[C@H](CCN)NC(=O)[C@H](CCN)NC1=O (stereo partly drawn) [Example 75, 4-amino-2-(cyclopentylmethyl) butanoyl L-Thr-L-Dap-polymyxin [D-cyclohexylalanine]-6 heptapeptide.] (X15-T[Dap][Dab][Dab][dCha]L[Dab][Dab]T; lactam 3-C) | >64 | 64 (≈ 57 µM) | 0.125 (≈ 0.111 µM) | 0.125 (≈ 0.111 µM) | 2 (≈ 1.78 µM) | 2 (≈ 1.78 µM) | 0.25 (≈ 0.223 µM) | 0.25 (≈ 0.223 µM) | 2 (≈ 1.78 µM) | 16 (≈ 14.3 µM) | 0.125 (≈ 0.111 µM) | 16 (≈ 14.3 µM) | 1 (≈ 0.891 µM) | 0.125 (≈ 0.111 µM) |  | 
